Columns and labels:
Test in all cases: Test B pre-/postemergence plant response
Assay type in all cases: in vivo
[1] = system: Italian ryegrass (Lolium multiflorum)
Procedure, shortened: (§1)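 Plants treated either at seeding (loam/sand soil) or postemergence at 2 to 18 cm height, using a surfactant-containing non-phytotoxic solvent formulation. Evaluation was visual after 13 to 15 days, 0 to 100 scale relative to controls.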

[2] = system: Surinam grass (Brachiaria decumbens)
Procedure, shortened: as §1

[3] = system: blackgrass (Alopecurus myosuroides)
Procedure, shortened: as §1

corn (Zea mays) = system: corn (Zea mays)
Procedure, shortened: as §1

[4] = system: downy bromegrass (Bromus tectorum)
Procedure, shortened: as §1

[5] = system: goosegrass (Eleusine indica)
Procedure, shortened: as §1

[6] = system: johnsongrass (Sorghum halepense)
Procedure, shortened: as §1

kochia (Kochia scoparia) = system: kochia (Kochia scoparia)
Procedure, shortened: as §1

[7] = system: lambsquarters (Chenopodium album)
Procedure, shortened: as §1

[8] = system: large crabgrass (Digitaria sanguinalis)
Procedure, shortened: as §1

[9] = system: pigweed (Amaranthus retroflexus)
Procedure, shortened: as §1

[10] = system: ragweed (common ragweed, Ambrosia elatior)
Procedure, shortened: as §1

soybean (Glycine max) = system: soybean (Glycine max)
Procedure, shortened: as §1

[11] = system: velvetleaf (Abutilon theophrasti)
Procedure, shortened: as §1

[12] = system: wheat (Triticum aestivum)
Procedure, shortened: as §1

wild oat (Avena fatua) = system: wild oat (Avena fatua)
Procedure, shortened: as §1

[13] = system: woolly cupgrass (Eriochloa villosa)
Procedure, shortened: as §1

[14] = system: yellow nutsedge (Cyperus esculentus)
Procedure, shortened: as §1

[15] = 62 g ai/ha, postemergence, 0 is no effect, 100 is complete control, 13 to 15 days

Compound: COCCn1c(-c2ccsc2)ncc(C(=O)C2=C(O)CCCC2=O)c1=O [Compound 97, 5-[(2-hydroxy-6-oxo-1-cyclohexen-1-yl)carbonyl]-3-(2-methoxyethyl)-2-(3-thienyl)-4(3H)-pyrimidinone]
- Ryegrass, Italian plant response rating (0 to 100 scale) [1, 15]: 0
- pest or weed control at 31 g/ha ([1]; Lolium multiflorum, post-emergence, 31 g ai/ha, postemergence, scale 0 to 100, 0 is no effect, 100 is complete control, read-out: Plant response rating, Ryegrass, Italian): 0%
- pest or weed control at 250 g/ha ([1]; Lolium multiflorum, post-emergence, Postemergence, 250 g ai/ha, scale 0 to 100 (0 no effect, 100 complete control), read-out: Plant response rating, Ryegrass, Italian): 5%
- Surinam Grass plant response rating (0 to 100 scale) [2, 15]: 75
- pest or weed control at 31 g/ha ([2]; Urochloa decumbens, post-emergence, 31 g ai/ha, postemergence, scale 0 to 100, 0 is no effect, 100 is complete control, read-out: Plant response rating, Surinam Grass): 65%
- pest or weed control at 250 g/ha ([2]; Urochloa decumbens, post-emergence, Postemergence, 250 g ai/ha, scale 0 to 100 (0 no effect, 100 complete control), read-out: Plant response rating, Surinam Grass): 85%
- Blackgrass plant response rating (0 to 100 scale) [3, 15]: 20
- pest or weed control at 31 g/ha ([3]; Alopecurus myosuroides, post-emergence, 360 h, 31 g ai/ha, postemergence, scale 0 to 100, 0 is no effect, 100 is complete control, read-out: Plant response rating, Blackgrass): 5%
- pest or weed control at 125 g/ha ([3]; Alopecurus myosuroides, post-emergence, 360 h, Postemergence, 125 g ai/ha, visual rating after 13 to 15 days, scale 0 (no effect) to 100 (complete control)): 30%
- pest or weed control at 250 g/ha ([3]; Alopecurus myosuroides, post-emergence, 360 h, Postemergence, 250 g ai/ha, scale 0 to 100 (0 no effect, 100 complete control), read-out: Plant response rating, Blackgrass): 50%
- Corn plant response rating (0 to 100 scale) (corn (Zea mays); [15]): 40
- Corn plant response rating (crop injury, 0 = no effect, 100 = complete kill) at 31 g/ha (corn (Zea mays); Zea mays, post-emergence, 31 g ai/ha, postemergence, scale 0 to 100, 0 is no effect, 100 is complete control): 20%
- Corn plant response rating (crop injury, 0 = no effect, 100 = complete kill) at 125 g/ha (corn (Zea mays); Zea mays, post-emergence, Postemergence, 125 g ai/ha, visual rating after 13 to 15 days, scale 0 (no effect) to 100 (complete control)): 60%
- Corn plant response rating (crop injury, 0 = no effect, 100 = complete kill) at 250 g/ha (corn (Zea mays); Zea mays, post-emergence, Postemergence, 250 g ai/ha, scale 0 to 100 (0 no effect, 100 complete control)): 75%
- Bromegrass, Downy plant response rating (0 to 100 scale) [4, 15]: 0
- pest or weed control at 31 g/ha ([4]; Bromus tectorum, post-emergence, 31 g ai/ha, postemergence, scale 0 to 100, 0 is no effect, 100 is complete control, read-out: Plant response rating, Bromegrass, Downy): 0%
- pest or weed control at 125 g/ha ([4]; Bromus tectorum, post-emergence, Postemergence, 125 g ai/ha, visual rating after 13 to 15 days, scale 0 (no effect) to 100 (complete control)): 5%
- pest or weed control at 250 g/ha ([4]; Bromus tectorum, post-emergence, Postemergence, 250 g ai/ha, scale 0 to 100 (0 no effect, 100 complete control), read-out: Plant response rating, Bromegrass, Downy): 10%
- Goosegrass plant response rating (0 to 100 scale) [5, 15]: 70
- pest or weed control at 31 g/ha ([5]; Eleusine indica, post-emergence, 31 g ai/ha, postemergence, scale 0 to 100, 0 is no effect, 100 is complete control, read-out: Plant response rating, Goosegrass): 60%
- pest or weed control at 250 g/ha ([5]; Eleusine indica, post-emergence, Postemergence, 250 g ai/ha, scale 0 to 100 (0 no effect, 100 complete control), read-out: Plant response rating, Goosegrass): 98%
- Johnsongrass plant response rating (0 to 100 scale) [6, 15]: 55
- pest or weed control at 31 g/ha ([6]; Sorghum halepense, post-emergence, 31 g ai/ha, postemergence, scale 0 to 100, 0 is no effect, 100 is complete control, read-out: Plant response rating, Johnsongrass): 15%
- pest or weed control at 250 g/ha ([6]; Sorghum halepense, post-emergence, Postemergence, 250 g ai/ha, scale 0 to 100 (0 no effect, 100 complete control), read-out: Plant response rating, Johnsongrass): 85%
- Kochia plant response rating (0 to 100 scale) (kochia (Kochia scoparia); [15]): 90
- pest or weed control at 31 g/ha (kochia (Kochia scoparia); Bassia scoparia, post-emergence, 31 g ai/ha, postemergence, scale 0 to 100, 0 is no effect, 100 is complete control, read-out: Plant response rating, Kochia): 65%
- pest or weed control at 250 g/ha (kochia (Kochia scoparia); Bassia scoparia, post-emergence, Postemergence, 250 g ai/ha, scale 0 to 100 (0 no effect, 100 complete control), read-out: Plant response rating, Kochia): 100%
- Lambsquarters plant response rating (0 to 100 scale) [7, 15]: 100
- pest or weed control at 31 g/ha ([7]; Chenopodium album, post-emergence, 31 g ai/ha, postemergence, scale 0 to 100, 0 is no effect, 100 is complete control, read-out: Plant response rating, Lambsquarters): 90%
- pest or weed control at 250 g/ha ([7]; Chenopodium album, post-emergence, Postemergence, 250 g ai/ha, scale 0 to 100 (0 no effect, 100 complete control), read-out: Plant response rating, Lambsquarters): 100%
- Crabgrass, Large plant response rating (0 to 100 scale) [8, 15]: 80
- pest or weed control at 31 g/ha ([8]; Digitaria sanguinalis, post-emergence, 31 g ai/ha, postemergence, scale 0 to 100, 0 is no effect, 100 is complete control, read-out: Plant response rating, Crabgrass, Large): 75%
- pest or weed control at 125 g/ha ([8]; Digitaria sanguinalis, post-emergence, Postemergence, 125 g ai/ha, visual rating after 13 to 15 days, scale 0 (no effect) to 100 (complete control)): 85%
- pest or weed control at 250 g/ha ([8]; Digitaria sanguinalis, post-emergence, Postemergence, 250 g ai/ha, scale 0 to 100 (0 no effect, 100 complete control), read-out: Plant response rating, Crabgrass, Large): 95%
- Pigweed plant response rating (0 to 100 scale) [9, 15]: 100
- pest or weed control at 31 g/ha ([9]; Amaranthus retroflexus, post-emergence, 31 g ai/ha, postemergence, scale 0 to 100, 0 is no effect, 100 is complete control, read-out: Plant response rating, Pigweed): 95%
- pest or weed control at 250 g/ha ([9]; Amaranthus retroflexus, post-emergence, Postemergence, 250 g ai/ha, scale 0 to 100 (0 no effect, 100 complete control), read-out: Plant response rating, Pigweed): 100%
- Ragweed plant response rating (0 to 100 scale) [10, 15]: 98
- pest or weed control at 31 g/ha ([10]; Ambrosia artemisiifolia, post-emergence, 360 h, 31 g ai/ha, postemergence, scale 0 to 100, 0 is no effect, 100 is complete control, read-out: Plant response rating, Ragweed): 85%
- pest or weed control at 250 g/ha ([10]; Ambrosia artemisiifolia, post-emergence, 360 h, Postemergence, 250 g ai/ha, scale 0 to 100 (0 no effect, 100 complete control), read-out: Plant response rating, Ragweed): 100%
- Soybean plant response rating (0 to 100 scale) (soybean (Glycine max); [15]): 80
- plant injury at 31 g/ha (soybean (Glycine max); Glycine max, post-emergence, 31 g ai/ha, postemergence, scale 0 to 100, 0 is no effect, 100 is complete control, read-out: Plant response rating, Soybean): 70%
- plant injury at 250 g/ha (soybean (Glycine max); Glycine max, post-emergence, Postemergence, 250 g ai/ha, scale 0 to 100 (0 no effect, 100 complete control), read-out: Plant response rating, Soybean): 100%
- Velvetleaf plant response rating (0 to 100 scale) [11, 15]: 100
- pest or weed control at 31 g/ha ([11]; Abutilon theophrasti, post-emergence, 360 h, 31 g ai/ha, postemergence, scale 0 to 100, 0 is no effect, 100 is complete control, read-out: Plant response rating, Velvetleaf): 100%
- pest or weed control at 250 g/ha ([11]; Abutilon theophrasti, post-emergence, 360 h, Postemergence, 250 g ai/ha, scale 0 to 100 (0 no effect, 100 complete control), read-out: Plant response rating, Velvetleaf): 100%
- Wheat plant response rating (0 to 100 scale) [12, 15]: 0
- plant injury at 31 g/ha ([12]; Triticum aestivum, post-emergence, 31 g ai/ha, postemergence, scale 0 to 100, 0 is no effect, 100 is complete control, read-out: Plant response rating, Wheat): 0%
- plant injury at 250 g/ha ([12]; Triticum aestivum, post-emergence, Postemergence, 250 g ai/ha, scale 0 to 100 (0 no effect, 100 complete control), read-out: Plant response rating, Wheat): 5%
- Oat, Wild plant response rating (0 to 100 scale) (wild oat (Avena fatua); [15]): 5
- pest or weed control at 31 g/ha (wild oat (Avena fatua); Avena fatua, post-emergence, 31 g ai/ha, postemergence, scale 0 to 100, 0 is no effect, 100 is complete control, read-out: Plant response rating, Oat, Wild): 0%
- pest or weed control at 250 g/ha (wild oat (Avena fatua); Avena fatua, post-emergence, Postemergence, 250 g ai/ha, scale 0 to 100 (0 no effect, 100 complete control), read-out: Plant response rating, Oat, Wild): 10%
- Cupgrass, Woolly plant response rating (0 to 100 scale) [13, 15]: 60
- pest or weed control at 31 g/ha ([13]; Eriochloa villosa, post-emergence, 31 g ai/ha, postemergence, scale 0 to 100, 0 is no effect, 100 is complete control, read-out: Plant response rating, Cupgrass, Woolly): 55%
- pest or weed control at 125 g/ha ([13]; Eriochloa villosa, post-emergence, Postemergence, 125 g ai/ha, visual rating after 13 to 15 days, scale 0 (no effect) to 100 (complete control)): 70%
- pest or weed control at 250 g/ha ([13]; Eriochloa villosa, post-emergence, Postemergence, 250 g ai/ha, scale 0 to 100 (0 no effect, 100 complete control), read-out: Plant response rating, Cupgrass, Woolly): 75%
- Nutsedge, Yellow plant response rating (0 to 100 scale) [14, 15]: 75
- pest or weed control at 31 g/ha ([14]; Cyperus, post-emergence, 31 g ai/ha, postemergence, scale 0 to 100, 0 is no effect, 100 is complete control, read-out: Plant response rating, Nutsedge, Yellow): 75%
- pest or weed control at 250 g/ha ([14]; Cyperus, post-emergence, Postemergence, 250 g ai/ha, scale 0 to 100 (0 no effect, 100 complete control), read-out: Plant response rating, Nutsedge, Yellow): 80%

Source: patent US8952024B2, “Herbicidal pyrimidone derivatives” (E I du Pont de Nemours and Company, priority 2009, dated 2015)
